# Assay results: patent publication US8450461B2, “Risperidone immunoassay” (Saladax Biomedical Inc., priority 2010, dated 2013)
# What was measured:
# Type in all cases: binding, mouse
# [1] = tested on: monoclonal antibody to risperidone 5D5-3; test: Indirect competitive microtiter plate immunoassay (ELISA), cross-reactivity, monoclonal antibody 5D5-3; details: monoclonal antibody number 5D5-3 (Example 6b); relative to risperidone = 100%
# Description: (§1) Mice from example 6a that were immunized with risperidone [9]-KLH prepared in 4 were used to produce monoclonal antibodies. For monoclonal antibodies starting three days before the fusion, the mice were injected i.p. with 400 μg (3 days before fusion), 200 μg (2 days before fusion), and 200 μg (1 day before fusion) of risperidone [9]-KLH in PBS/DMSO prepared in example 4. Spleen cells were isolated from the selected mice and fused with 2×10^7 SP2/0 cells with 50% polyethylene glycol 1500 according to the method of Coligan, J. E. et al., eds., Current Protocols in Immunology, 2.5.1-2.5.8, (1992), Wiley & Sons, NY. The fused cells were plated on ten 96-well plates in DMEM/F12 supplemented with 20% FetalClone I, 2% L-glutamine (100 mM) and 2% 50× HAT. Two to three weeks later, the hybridoma supernatant was assayed for the presence of anti-risperidone antibodies by ELISA (as in example 8b). Cells from the wells that gave positive ELISA results (example 8b) were expanded to 24 well plates. Clones positive by ELISA were subcloned twice by limiting dilution according to the method disclosed in Coligan, J. E. et al., eds., Current Protocols in Immunology, 2.5.8-2.5.17, 1992, Wiley & Sons, NY. Hybridoma culture supernatants containing monoclonal antibody from selected subclones were confirmed for risperidone binding by a competitive ELISA (example 9). […]
# [2] = tested on: polyclonal antibodies to risperidone, bleed G1M1; test: Indirect competitive microtiter plate immunoassay (ELISA), cross-reactivity, polyclonal anti-serum bleed G1M1; details: polyclonal antibodies (Example 6a), relative to risperidone = 100%
# Description: (§2) Ten female BALB/c mice were immunized i.p. with 100 μg/mouse of risperidone [9]-KLH immunogen, as prepared in Example 4, emulsified in Complete Freund's Adjuvant. The mice were boosted once, four weeks after the initial injection with 100 μg/mouse of the same immunogen emulsified in Incomplete Freund's Adjuvant. Twenty days after the boost, test bleeds containing polyclonal antibodies from each mouse were obtained by orbital bleed. The test bleeds were fractionated by centrifugation to yield anti-sera. The anti-sera from these test bleeds, which contain polyclonal antibodies to risperidone [9]-KLH immunogen, were evaluated in Examples 8a and 9.
# (§3) The ELISA method for measuring risperidone concentrations was performed in polystyrene microtiter plates (Nunc MaxiSorp F8 Immunomodules) optimized for protein binding and containing 96 wells per plate. Each well was coated with risperidone [9]-BSA conjugate (prepared as in Example 5a) by adding 300 μL of risperidone [9]-BSA conjugate at 10 μg/mL in 0.05M sodium carbonate, pH 9.6, and incubating for three hours at room temperature. The wells were washed with 0.05M sodium carbonate, pH 9.6 and then were blocked with 375 μL of 5% sucrose, 0.2% sodium caseinate solution for 30 minutes at room temperature. After removal of the post-coat solution the plates were dried at 37° C. overnight.
# as §3, with “[14]-BSA” for “[9]-BSA”, “5b)” for “5a)”
# (§4) This procedure is to find the dilution of antibody or anti-serum to be tested for displacement as in Example 9. The ELISA method for screening risperidone antibodies (produced in Example 6) was performed with the microtiter plates that were sensitized with risperidone-BSA conjugate prepared in Examples 7a and 7b. The antibody screening assay was performed by diluting the murine serum from test bleeds (as in Example 6) containing polyclonal risperidone antibodies to 1:2,000, 1:[…] and 1:54,000 (volume/volume) in phosphate buffered saline containing 0.1% BSA and 0.01% thimerosal. […] (volume/volume) in phosphate buffered saline containing 0.1% BSA and 0.01% thimerosal. […]
# [3] = tested on: monoclonal antibody to risperidone 4B9-21; test: Indirect competitive microtiter plate immunoassay (ELISA), cross-reactivity, monoclonal antibody 4B9-21; details: monoclonal antibody number 4B9-21 (Example 6b); relative to risperidone = 100%
# Description: as §1
# [4] = tested on: polyclonal antibodies to risperidone, bleed G2M1; test: Indirect competitive microtiter plate immunoassay (ELISA), cross-reactivity, polyclonal anti-serum bleed G2M1; details: polyclonal antibodies (Example 6a), relative to risperidone = 100%
# Description: as §2, §3
# as §3, with “[14]-BSA” for “[9]-BSA”, “5b)” for “5a)”
# as §4
# [5] = tested on: polyclonal antibodies to risperidone, bleed G1M3; test: Indirect competitive microtiter plate immunoassay (ELISA), cross-reactivity, polyclonal anti-serum bleed G1M3; details: polyclonal antibodies (Example 6a), relative to risperidone = 100%
# Description: as §2, §3
# as §3, with “[14]-BSA” for “[9]-BSA”, “5b)” for “5a)”
# as §4
# [6] = tested on: polyclonal antibodies to risperidone, bleed G2M5; test: Indirect competitive microtiter plate immunoassay (ELISA), cross-reactivity, polyclonal anti-serum bleed G2M5; details: polyclonal antibodies (Example 6a), relative to risperidone = 100%
# Description: as §2, §3
# as §3, with “[14]-BSA” for “[9]-BSA”, “5b)” for “5a)”
# as §4
# [7] = tested on: antibodies to risperidone (pool of antibodies); test: Competitive immunoassay / screening with the pool of antibodies to risperidone
# Description: The present invention relates to novel antibodies and monoclonal antibodies to risperidone and paliperidone. The antisera of the invention can be conveniently produced by immunizing host animals with the immunogens of this invention. Suitable host animals include rodents, such as, for example, mice, rats, rabbits, guinea pigs and the like, or higher mammals such as goats, sheep, horses and the like. […]
# The ELISA method for determining IC50 values and cross-reactivity was performed with the microtiter plates that were sensitized with risperidone-BSA conjugates as described in Examples 7a and 7b. […] The assays were all performed by diluting the concentration of the anti-sera or monoclonal antibodies in each of the wells to the titer determined in Example 8a. […] Following the incubation for color development, 50 μL of stop solution (1.5% sodium fluoride in di H2O) was added to each well to stop the color development and after 20 seconds of shaking the absorbance was determined at 650 nm (Molecular Devices Plate Reader). The amount of antibody in a well was proportional to the absorbance measured and inversely proportional to the amount of risperidone in the sample. The IC50's of risperidone and paliperidone were determined by constructing dose-response curves with the absorbance in the wells plotted versus analyte concentration in the wells. […]
smiles,measurement,setting,value
Cc1nc2n(c(=O)c1CCN1CCC(c3noc4cc(F)ccc34)CC1)CC(O)CC2 (stereo not shown) [7-hydroxy-risperidone],Cross-reactivity of competitive immunoassay,[1],39%
same,Cross-reactivity of competitive immunoassay,[2],50%
same,Cross-reactivity of competitive immunoassay,[3],30%
same,Cross-reactivity of competitive immunoassay,[4],65%
same,Cross-reactivity of competitive immunoassay,[5],66%
same,Cross-reactivity of competitive immunoassay,[6],69%
"Cc1nc2n(c(=O)c1CCN1CCC(c3noc4cc(F)ccc34)CC1)CCCC2 [Risperidone, risperidone]",Cross-reactivity of competitive immunoassay,[1],100%
same,Cross-reactivity of competitive immunoassay,[2],100%
same,Cross-reactivity of competitive immunoassay,[3],100%
same,Cross-reactivity of competitive immunoassay,[4],100%
same,Cross-reactivity of competitive immunoassay,[5],100%
same,Cross-reactivity of competitive immunoassay,[6],100%
Fc1ccc2c(C3CCNCC3)noc2c1 [N-dealkyl-risperidone],Cross-reactivity of competitive immunoassay,[2],0.02%
same,Cross-reactivity of competitive immunoassay,[4],0.09%
same,Cross-reactivity of competitive immunoassay,[5],0.07%
same,Cross-reactivity of competitive immunoassay,[6],0.1%
"Cc1nc2n(c(=O)c1CCN1CCC(c3noc4cc(F)ccc34)CC1)CCCC2O (stereo not shown) [Paliperidone, paliperidone]",binding of the antibodies to the compound (screening),[7]; antibodies from immunized mice screened against the compound,substantial binding
same,percent cross-reactivities relative to risperidone,"[7]; measured with this pool of antibodies, ratio of IC50 risperidone to IC50 paliperidone",100±20%
same,Cross-reactivity of competitive immunoassay,[2],81%
same,Cross-reactivity of competitive immunoassay,[4],98%
same,Cross-reactivity of competitive immunoassay,[5],80%
same,Cross-reactivity of competitive immunoassay,[6],81%
